These results are taken from Sander's compilation of Henry's law constants (doi:10.1021/ie980743h).

The first series in a line: Henry solubility constant Hcp at 298.15 K (mol/(m3 Pa)). As to conditions: reference: Dohnal and Hovorka (1999).
Turning to `Cc1ccccc1C` [1,2-dimethylbenzene], the “Henry solubility constant Hcp” value worked out at 0.0021.

As for `Cc1cccc(C)c1` [1,3-dimethylbenzene], the “Henry solubility constant Hcp” value is 0.0015.

Consider `Cc1ccc(C)cc1` [1,4-dimethylbenzene], for which the “Henry solubility constant Hcp” value came to 0.0015.

Take `CCC(C)(C)OC` [2-methoxy-2-methylbutane]: the “Henry solubility constant Hcp” value came out at 0.01.

Consider `c1ccccc1` [benzene], for which the “Henry solubility constant Hcp” value stood at 0.0018.

Consider `CC(C)OC(C)C` [diisopropyl ether], for which the “Henry solubility constant Hcp” value was 0.0047.

Take `C=Cc1ccccc1` [ethenylbenzene]: the “Henry solubility constant Hcp” value is 0.0034.

Turning to `Cc1ccccc1` [methylbenzene], the “Henry solubility constant Hcp” value was 0.0016.

The next series in a line: Henry solubility constant Hcp at 293 K (mol/(m3 Pa)). To be noted: reference: Dohnal and Hovorka (1999).
`ClCC(Cl)Cl` [1,1,2-trichloroethane]: the “Henry solubility constant Hcp at 293 K” value was determined as 0.015.

In the case of `CC(Cl)CCl` (centres undefined) [1,2-dichloropropane], the “Henry solubility constant Hcp at 293 K” value turned out to be 0.0044.

`CCCCCl` [1-chlorobutane]: the “Henry solubility constant Hcp at 293 K” value was determined as 0.00067.

Take `Clc1ccccc1` [chlorobenzene]: the “Henry solubility constant Hcp at 293 K” value worked out at 0.0036.

`BrCBr` [dibromomethane]: the “Henry solubility constant Hcp at 293 K” value was found to be 0.014.

As for `ClC(Cl)=C(Cl)Cl` [tetrachloroethene], the “Henry solubility constant Hcp at 293 K” value was determined as 0.00086.
